Source: patent US9561201B2, “Therapeutic compounds” (Fibrotech Therapeutics Pty Ltd, priority 2006, dated 2017)

How the values were obtained:
rat mesangial cell line [1] = assay: TGF-β stimulated 3H-proline incorporation in mesangial cells (Example 5); format: cell-based; details: for inhibition at 3 µM / inhibition at 10 µM / inhibition at 30 µM / inhibition at 1 µM: Rattus norvegicus, Mesangial cell, 5 ng/mL TGF-β1, 44 h, read-out: Mesangial Cell Assay TGF-β % reduction of TGF-β stimulation_proline inc.; for Collagen synthesis: inhibition ranked against tranilast (T) or FT11
Procedure: (§1) A well-characterized cloned rat mesangial cell line (gift of D Nikolic-Patterson) is cultured in DMEM with FBS, 100 U/mL penicillin, and 100 ug/mL streptomycin in a humidified 5% CO2 atmosphere at 37° C. Cells are plated into 24-well culture dishes in DMEM/10% FBS at low density and allowed to adhere overnight. Cells are used between passages 20 and 40. The subconfluent cells are starved overnight in DMEM/0.1% FBS containing 150 uM L-ascorbic acid, prior to 4 hours of pre-treatment with or without tranilast or the FT compounds, followed by the addition of 5 ng/mL rhTGF-β11 (R&D Systems) and 1 uCi/mL of L-(2,3,4,5-^3H)-proline. Control wells have the compounds but no TGF-β1 added. Cells are incubated for a further 44 hours during which time their appearance is visually monitored. The cells are then washed three times in ice-cold PBS, twice in ice cold 10% TCA and solubilized in 750 uL 1M NaOH for 45 minutes at 37° C. or overnight at 4° C. A 500 uL aliquot is neutralized with 500 uL 1M HCl and 10 mL scintillation fluid (Instagel Plus-Perkin-Elmer) added. Counts are performed on a beta counter.
To normalize the proline incorporation counts to take into account the proliferative effects of TGF-β1, a BioRad protein assay is performed on a 100-150 uL aliquot of the remaining solubilized cells. The sample is neutralized with an equal amount of 1M HCl prior to the assay. The BSA standards used to construct the standard curve have the same amount of 1M NaOH and 1M HCl added as is present in the samples for assay.
Proline incorporation is expressed as cpm/ug protein. In order to compare inter-assay results, the incorporation is expressed as percentage reduction of TGF stimulated proline incorporation, where TGF alone gives 0% reduction and the zero control gives 100% reduction.

Mesangial cells = assay: Mesangial cell MTT assay with TGF-β; format: cell-based, rat; details: suppressed = reduced cell viability
Procedure: Mesangial cells are plated at 15000 cells per well into 96-well culture dishes in DMEM/10% FBS and allowed to adhere overnight. The subconfluent cells are starved overnight in DMEM/0.1% FBS, prior to 4 hours of pre-treatment with or without tranilast or the FT compounds. Following the addition of 5 ng/mL rhTGF-β1, the cells are incubated in a humidified 5% CO2 atmosphere at 37° C. for 44 hours. Control wells have the compounds but no TGF-β1 added. The culture medium is removed from each well and 100 uL MTT (0.5 mg/mL) in starve medium is added to each well. The plates are incubated for a further 4 hours at 37° C. The culture medium is then removed and replaced with 100 μL isopropanol and incubated at 37° C. for 20 to 30 minutes, until the blue formazan crystals have dissolved. The absorbance is measured at a wavelength of 570 nm with background subtraction of 690 nm.
Suppressed MTT Result Indicates Reduced Cell Viability

rat mesangial cell line [2] = assay: Effect on mesangial cell appearance (visual monitoring during proline assay); format: cell-based
Procedure: as §1
Compounds in Bold have Minimal Effect on Cell Appearance and Viability

[3] = test system: Neonatal rat cardiac fibroblasts (NCFs); assay: NCF TGF-β collagen synthesis, 3H-proline incorporation (Example 6); format: cell-based
Procedure: Neonatal SD rat cardiac myocytes (NCMs) and fibroblasts (NCFs) were isolated from one-day-old pups with enzymatic digestion as described in detail previously. NCFs were seeded and maintained in high-glucose (25 mmol/L) Dulbecco's modified Eagle's medium (DMEM) (Invitrogen Mount Waverley, Vic, Australia) in the presence of 1% antibiotic/antimycotic (AB/AM) and 10% fetal bovine serum (FBS) (JRH biosciences, Kansas, USA). NCFs were used at passage 2 [31]. Purified NCMs were seeded (1000 cells/mm^2) in 6-well plates and then maintained in serum-free DMEM (Invitrogen, NY, USA) supplemented with insulin and transferrin as described previously (4). Bromodeoxyuridine was included for the first 3 days. 50 mmol/L KCl was added to the medium to prevent spontaneous contraction characteristic of the plated NCMs.
NCFs collagen synthesis assays were performed as described previously. Briefly, NCFs plated at a density of 50,000 cells/well in 12-well plate and incubated overnight. NCFs were then serum starved for 24 hours in high-glucose DMEM. […]
For collagen synthesis, 1 μCi of [^3H]-Proline was added to each well and incubated for further 48 hours before harvest. Cells were harvested by precipitation with 10% TCA on ice for 30 min, before solubilisation with 0.75 mL of 1 mol/L NaOH overnight at 4° C. The samples were then neutralized with 1 mol/L HCl and ^3H level were counted with 10 ml scintillation fluid on a beta-counter to determine [^3H]-proline incorporation.

Compound	inhibition at 3 µM (rat mesangial cell line [1]) [%]	inhibition at 10 µM (rat mesangial cell line [1]) [%]	Collagen synthesis (rat mesangial cell line [1])	melting point [°C]	Mesangial cell MTT Assay TGF-β (Mesangial cells; @ 30 μM)	Effect on mesangial cell appearance (rat mesangial cell line [2]; @ 10 μM)	inhibition at 30 µM (rat mesangial cell line [1]) [%]	NCF TGF-β Collagen Synthesis ([3]; @ 30 μM)	Effect on mesangial cell appearance (rat mesangial cell line [2]; @ 100 μM)	inhibition at 1 µM (rat mesangial cell line [1]) [%]	NCF TGF-β Collagen Synthesis ([3]; @ 10 μM)	Effect on mesangial cell appearance (rat mesangial cell line [2]; @ 30 μM)	Mesangial cell MTT Assay TGF-β (Mesangial cells; @ 10 μM)
COc1ccc(/C=C/C(=O)Nc2ccc(Br)cc2C(=O)O)cc1OC [Analogue 16, (E)-2-[[3-(3,4-Dimethoxyphenyl)-1-oxo-2-propenyl]amino]-5-bromobenzoic acid]	~20	~50	>>FT11	210 to 213	Suppressed	lifting off							
C#CCOc1cc(/C=C/C(=O)Nc2ccccc2C(=O)O)ccc1OC [Analogue 17, (E)-2-[[3-(4-Methoxy-3-propargyloxyphenyl)-1-oxo-2-propenyl]amino]benzoic acid]		20 to 50	>=FT11				~55	~70% at					
COc1ccc(/C=C/C(=O)Nc2ccccc2C(=O)O)cc1OCc1cn(CC(=O)Nc2ccccc2)nn1 [Analogue 21, (E)-2-[[3-(4-Methoxy-3-((1-(2-oxo-2-(phenylamino)ethyl)-1H-1,2,3-triazol-4-yl)methoxy)phenyl)-1-oxo-2-propenyl]amino]benzoic acid]		~20	=FT11		Suppressed		~65		necrotic				
COc1cc(/C=C/C(=O)Nc2ccccc2C(=O)O)ccc1OC1CCCC1 [Analogue 26, (E)-2-{[3-(4-Cyclopentyloxy-3-methoxyphenyl)-1-oxo-2-propenyl]amino}benzoic acid]	30	85	>FT11	96 to 98			93		lifting off	~13	28% at	sparse	
COc1cc(/C=C/C(=O)Nc2ccccc2C(=O)O)ccc1OC1CCCCC1 [Analogue 27, (E)-2-{[3-(4-Cyclohexyloxy-3-methoxyphenyl)-1-oxo-2-propenyl]amino}benzoic acid]	40	75 to 90	>FT11	90 to 92	Suppressed	Sparse @			lifting off	~18		sick @ 30 μM	
COc1cc(/C=C/C(=O)Nc2ccccc2C(=O)O)ccc1OCC1CCCCC1 [Analogue 28, (E)-2-{[3-(4-Cyclohexylmethoxy-3-methoxyphenyl)-1-oxo-2-propenyl]amino}benzoic acid]		~40	<FT11	207 to 210			173		Dead @			Stressed @	deadly ®
COc1ccc(/C=C/C(=O)Nc2ccccc2C(=O)O)cc1OC1CCCC1 [Analogue 29, (E)-2-{[3-(3-Cyclopentyloxy-4-methoxyphenyl)-1-oxo-2-propenyl]amino}benzoic acid]	40	~90	>FT11	211 to 217	Suppressed	Sparse @		25% @ 30 μM	Stressed @	~8	10% @ 10 μM		
C#CCCCCOc1ccc(/C=C/C(=O)Nc2ccccc2C(=O)O)cc1OC [Analogue 33, (E)-2-[[3-(4-(Hex-5-ynyloxy)-3-methoxyphenyl)-1-oxo-2-propenyl]amino]benzoic acid]	40	60	>FT11	148 to 150			80			~15		Looking bad	Severely
C#CCCCCOc1cc(/C=C/C(=O)Nc2ccccc2C(=O)O)ccc1OC [Analogue 34, (E)-2-[[3-(3-(Hex-5-ynyloxy)-4-methoxyphenyl)-1-oxo-2-propenyl]amino]benzoic acid]		~80	>FT11	135 to 137	Suppressed		94					Looking bad	
C#CCCCOc1ccc(/C=C/C(=O)Nc2ccccc2C(=O)O)cc1OC [Analogue 35, (E)-2-[[3-(3-Methoxy-4-(pent-4-ynyloxy)phenyl)-1-oxo-2-propenyl]amino]benzoic acid]	~25	50	=>FT11	166.5 to 167.5			60 to 100					Looking bad	Suppressed
C#CCCCOc1cc(/C=C/C(=O)Nc2ccccc2C(=O)O)ccc1OC [Analogue 36, (E)-2-[[3-(4-Methoxy-3-(pent-4-ynyloxy)phenyl)-1-oxo-2-propenyl]amino]benzoic acid]		~50	=>FT11	154 to 156	Severely		80						
